The record followed here is patent US9051351B2, “Hepatocyte growth factor mimics as therapeutic agents” (Washington State University, priority 2011, dated 2015).

A short description of series [1]: Blood stability in heparinized rat blood. The settings on record: 37° C.; single phase exponential decay. Type of series: in vitro ADME. How it is done: At the end of each incubation, 20 μL of […]
The next series has as its target T1, human HGF (Homo sapiens, UniProt P14210).
T1 construct: purchased R&D Systems (Minneapolis, Minn.)
The series can be described thus: HGF dimerization (PAGE, silver staining). Type of series: biochemical. The settings on record: analog 10^−10 M, heparin, 30 minute incubation. How it is done:
HGF dimerization was assessed using PAGE followed by silver staining (Kawas et al., 2011). Human HGF at a concentration of 0.08 ng/μl with or without 6-AH analogs was incubated with heparin at a final concentration of 5 μg/ml. Loading buffer was then added to each sample and the mixture separated by native PAGE using gradient Criterion XT precast gels (4-12% Bis-Tris; Biorad Laboratories, Hercules, Calif.). Next the gel was silver stained for the detection of the HGF monomers and dimers. Bands were quantitated from digital images using a UVP phosphoimager (Upland, Calif.).

Series [2] concerns MDCK cells. Put plainly: HGF-dependent MDCK cell proliferation (MTT). It counts as cell-based, canine. To be noted: analog 10^−10M, HGF 10 ng/ml, 4 days. How it is done: 5000 MDCK cells were seeded into the wells of a 96 well plates in 10% FBS DMEM. To induce cellular quiescence, the cells were serum deprived for 24 h prior to initiating the treatments. Following serum starvation, 10 ng/ml HGF alone and with various concentrations of 6-AH analogs or PBS vehicle were added to the media. The cells were allowed to grow under these conditions for 4 days with a daily addition of 6-AH analogs. On the fourth day, 1 mg/ml of […] (MTT, Sigma-Aldrich) prepared in PBS was added to the cells and incubated for 4 h. Dimethyl sulfoxide diluted in a 0.01M glycine buffer was added to solubilize the cell membranes and the absorbance of reduced MTT in the buffer was quantitated at 590 nm using a plate reader (Biotek Synergy 2, Winooski, Vt.). HGF-dependent proliferation was determined by subtracting the basal proliferation (in the absence of HGF) from total proliferation rates in groups containing HGF.

For series [3] the following is noted: rat, in vivo, iv, 24 mg/kg.
Description: Male Sprague-Dawley rats (250+ g) were allowed food (Harlan Teklad rodent diet) and water ad libitum in our AAALAC certified animal facility. Rats were housed in temperature-controlled rooms with a 12 h light/dark cycle. The right jugular veins of the rats were catheterized with sterile polyurethane Hydrocoat™ catheters (Access Technologies, Skokie, Ill., USA) under ketamine (Fort Dodge Animal Health, Fort Dodge, Iowa, USA) and isoflurane (Vet One™, MWI, Meridian, Id., USA) anesthesia. The catheters were exteriorized through the dorsal skin. The catheters were flushed with heparinized saline before and after blood sample collection and filled with heparin-glycerol locking solution (6 mL glycerol, 3 mL saline, 0.5 mL gentamycin (100 mg/mL), 0.5 mL heparin (10,000 u/mL)) when not used for more than 8 h. The animals were allowed to recover from surgery for several days before use in any experiment, and were fasted overnight prior to the pharmacokinetic experiment. […]
Pharmacokinetic analysis was performed using data from individual rats. The mean and standard deviation (SD) were calculated for the group. Noncompartmental pharmacokinetic parameters were calculated from serum drug concentration-time profiles by use of WinNonlin® software (Pharsight, Mountain View, Calif., USA).
The test system of series [4] is B16-F10 murine melanoma cells. The series can be described thus: B16-F10 melanoma lung colony formation. To be noted: C57BL/6 mice; daily IP 10 μg/kg/day or 100 μg/kg/day, 14 days. Type of series: in vivo, mouse. As for the experimental part: Six to eight month old C57BL/6 mice were injected with 400,000 B16-F10 cells in 200 μl PBS by tail vein injection and subsequently received daily intraperitoneal injections of either D-Nle-X-Cys-NH—(CH2)5—CONH2 (10 μg/kg and 100 μg/kg) or a PBS vehicle control. Two weeks later, mice were anesthetized and lungs were perfused with PBS and removed. Photos were taken and lungs were solubilized in 1% Triton x-100, 20 mM Tris, 0.15 M NaCl, 2 mM EDTA, and 0.02% sodium azide. Samples were disrupted by sonication (Mixonix, Farmingdale, N.Y.) and spun. The supernatant was transferred to a 96 well plate and melanin absorbance at […] was measured using a plate reader.

The subject of series [5] is hippocampal neurons. The series can be described thus: Whole-cell recordings of mEPSCs in dissociated hippocampal neurons. Type of series: cell-based, rat. The settings on record: Dihexa, Hinge 10^−12 M; HGF 10 ng/ml; 5 days.
The test system of a further series is scopolamine treated rats. Put plainly: Morris water maze, scopolamine amnesia model. Type of series: in vivo, rat. To be noted: for mean latency to find the pedestal: icv, Dihexa, Hinge 300 pmol, scopolamine 70 nmol. As for the experimental part:
Swim speed was determined from these values.

The subject of series [6] is hippocampal neurons. The series can be described thus: Dendritic spine counts (spinogenesis) in mRFP-β-actin transfected dissociated hippocampal neurons. It counts as cell-based, rat. As for the experimental part:
Hippocampal neurons (2×10^5 cells per square cm) were cultured from P1 Sprague Dawley rats on plates coated with poly-L-lysine from Sigma (St. Louis, Mo.; molecular weight 300,000). […] Each experiment was repeated at least three times using independent culture preparations. […] Hippocampal neurons (2×10^5 cells per square centimeter) were cultured from P1-2 Sprague Dawley rats on plates coated with poly-L-lysine from Sigma (St. Louis, Mo.; molecular weight 300,000). Hippocampal neurons were maintained in Neurobasal A media from Invitrogen (Carlsbad, Calif.) supplemented with B27 from Invitrogen, 0.5 mM L-glutamine, and […] cytosine-D-arabinofuranoside from Sigma added at 2 days in vitro. Hippocampal neurons were then cultured a further 3-7 days, at which time they were either transfected or treated with various pharmacological reagents as described in the text or figure legends. Neurons were transfected with mRFP-β-actin on day in vitro 6 […] using LipofectAMINETM 2000 (Invitrogen) according to the manufacturer's protocol. […] On DIV7 the cells were treated with vehicle (H20) or peptides (as described in the text) added to media. […] Five 50 μm long segments of dendrite from at least 10 neurons per data point were analyzed for each data point reported. Each experiment was repeated at least three times using independent culture preparations. […] A target sequence for c-Met was designed using RNAi central design program (see the website located at […].edu/). The target sequence […] NO: 2) was inserted into pSUPER vector (Oligoengine, Seattle Wash.) which drives endogenous production of shRNA under the H1 promoter. The shRNA was transfected into cells using the lipofectamine method described above. Verification of receptor knockdown was done by creating a c-[…]-Myc tagged gene product using the Gateway cloning system (Invitrogen). The Met protein coding sequence was cloned from rat whole brain cDNA using primers obtained from Integrated DNA Technologies, Inc. The amplified product was gel purified and a band corresponding to 190 kDa band excised and cloned into a […] destination vector (Gateway). Hippocampal neurons (2×10^5 cells per square cm) were cultured from P1 Sprague Dawley rats on plates coated with poly-L-lysine from Sigma (St. Louis, Mo.; molecular weight […]).

The test system of series [7] is MDCK cells. Put plainly: Inhibition of HGF-dependent scattering in MDCK cells. It counts as cell-based, canine. As for the experimental part:
MDCK cells were grown to 100% confluency on the coverslips in six-well plates and washed twice with PBS. The confluent coverslips were then aseptically transferred to new six well plates containing 900 μl serum free DMEM. Norleual, Hinge peptide, and/or HGF (20 ng/ml) were added to appropriate wells. Control wells received PBS vehicle. Plates were incubated at 37° C. with 5% CO2 for 48 hours. Media was removed and cells were fixed with methanol. Cells were stained with Diff-Quik Wright-Giemsa (Dade-Behring, Newark, Del.) and digital images were taken. Coverslips were removed with forceps and more digital images were captured. Pixel quantification of images was achieved using Image J and statistics were performed using Prism 5 and InStat v.3.05.
MDCK cells were grown to 100% confluency on the coverslips in six-well plates and washed twice with PBS. The confluent coverslips were then aseptically transferred to new six well plates containing 900 μl serum free DMEM. Norleual, Hinge peptide, and/or HGF (20 ng/ml) were added to appropriate wells. Control wells received PBS vehicle. Plates were incubated at 37° C. with 5% CO2 for 48 h. Media was removed and cells were fixed with methanol. […] Pixel quantification of images was achieved using Image J and statistics were performed using Prism 5 and InStat v.3.05 (GraphPad; San Diego, Calif.).

“Also recorded” adds a separate entry of the source. Where a SMILES comes first, the peptide text is derived from it. [ ]: non-standard residue; d: D form. dNle = CCCC[C@@H](N)C(=O)O; Ahx = NCCCCCC(=O)O

T1 sequence (P14210 32-728): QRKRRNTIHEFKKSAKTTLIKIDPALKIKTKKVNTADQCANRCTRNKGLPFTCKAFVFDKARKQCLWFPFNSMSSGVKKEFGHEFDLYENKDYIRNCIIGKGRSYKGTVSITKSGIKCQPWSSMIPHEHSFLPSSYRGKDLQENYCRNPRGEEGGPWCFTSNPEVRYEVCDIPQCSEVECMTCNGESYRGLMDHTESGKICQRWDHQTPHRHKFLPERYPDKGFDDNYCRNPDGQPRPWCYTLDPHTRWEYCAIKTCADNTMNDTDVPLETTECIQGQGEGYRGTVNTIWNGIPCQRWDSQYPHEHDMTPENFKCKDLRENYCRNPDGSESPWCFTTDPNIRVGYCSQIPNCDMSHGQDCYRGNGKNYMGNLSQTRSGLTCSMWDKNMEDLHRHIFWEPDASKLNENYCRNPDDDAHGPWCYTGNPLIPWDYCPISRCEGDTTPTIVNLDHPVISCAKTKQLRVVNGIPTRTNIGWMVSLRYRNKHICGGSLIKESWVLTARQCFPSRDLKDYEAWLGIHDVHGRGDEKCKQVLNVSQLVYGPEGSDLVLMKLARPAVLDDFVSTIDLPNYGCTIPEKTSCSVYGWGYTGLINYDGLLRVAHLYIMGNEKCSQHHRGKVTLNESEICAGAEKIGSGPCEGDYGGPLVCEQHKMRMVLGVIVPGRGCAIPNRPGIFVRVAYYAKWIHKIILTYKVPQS

In the case of `CCCC[C@@H](N)C(=O)N[C@@H](Cc1ccc(O)cc1)C(=O)N[C@H](C(=O)NCCCCCC(N)=O)[C@@H](C)CC` (H-[dNle]YI[Ahx]-NH2), in [1], the “stability t1/2 in heparinized rat blood” value was 79.97 min. Besides, the “inhibition of HGF dimerization” value against human HGF was “completely block HGF dimer formation”. The “inhibition of HGF dimerization” value at human HGF (listed as Tyr) is recorded as “statistically different than the HGF treated group”. The “inhibition of HGF-dependent MDCK cell proliferation” value in the series with MDCK cells [2] is on record as “marked inhibitory activity”. Further, in series [3], the “Cp^0” value came to 68.2 ± 32.2 ng/mL and the KE was 0.001 ± 0.0002 min⁻¹.
With `CCCC[C@@H](N)C(=O)N[C@@H](CS)C(=O)N[C@H](C(=O)NCCCCCC(N)=O)[C@@H](C)CC` [D-Nle-Cys-Ile-NH—(CH2)5—CONH2] (H-[dNle]CI[Ahx]-NH2), the “inhibition of HGF dimerization” value against human HGF is on record as “completely block HGF dimer formation”; on human HGF (listed as Cys), “statistically different than the HGF treated group”. In addition, the “inhibition of HGF-dependent MDCK cell proliferation” value in the series on MDCK cells [2] was “marked inhibitory activity”. In addition, the “B16-F10 melanoma lung colonization” value in [4] is “suppressed pulmonary colonization; also recorded: radically prevented lung colonization; also recorded: obvious reduction in melanoma colonies”.
With “Hinge: novel HGF antagonist Hinge (DYIRNC, SEQ ID NO: 3); elsewhere Hinge peptide (KDYIRN), the dimerization domain of HGF (Synthetic hinge peptide) [reference compound]”, in the series on hippocampal neurons [5], the “mean frequency of mEPSCs” value is recorded as 4.51±0.47. Also, the “mean latency to find the pedestal” value is listed as 111.1 s in the series on scopolamine treated rats (day one of training), 46.1 s in the series with scopolamine treated rats (final day of training (day 8)) and 78.3 s with scopolamine treated rats (fourth day of training). For the same compound, the “latency to escape, Morris water maze (FIG. 21)” value in the series with scopolamine treated rats (i.c.v. injections, 8 days of training) was “no effect on learning”. In addition, in the series on hippocampal neurons [6] (Hinge 10^−12 M, HGF 10 ng/ml, Nle1-AngIV or Dihexa 10^−12 M), the “inhibition of HGF-, Nle1-AngIV- and Dihexa-induced spinogenesis by Hinge” value was “effectively inhibit spine formation; also recorded: inhibits HGF-induced spinogenesis; also recorded: inhibits Nle1-AngIV-induced spinogenesis; also recorded: inhibits Dihexa-induced spinogenesis”. Further, in the series on hippocampal neurons [6] (wide range of doses), the “effect of Hinge alone on spinogenesis” value is “no effect on spinogenesis over a wide range of doses; also recorded: does not affect spinogenesis”. Moreover, in the series on MDCK cells [7], the “inhibition of MDCK cell scattering by Hinge” value is recorded as “inhibit scattering of Madin-Darby canine kidney (MDCK) cells”.
